# Results reported in article PMC8162404, “Proteomimetic surface fragments distinguish targets by function” (Chemical Science, 2020).
# What was measured:
# Gal-1 [1] = biological target: T1, Gal-1 (Homo sapiens, UniProt P09382); test: Competition pull-down with lactose; format: binding; details: H14 library; lactose 10 mM; read-out: Surface mapping KD (apparent), competition
# T1 construct: made in house; host or cells: E. coli BL21(DE3)
# Experimental: Interactions between the H14 helical LSMs and the targets were abundant, but safe recognition of the native PPI interfaces on the targets is a criterion of druggability. To gain insight into the ability of the LSMs to detect orthosteric spots, we carried out pull-down assays in the presence of the native ligands (Table 2) of the targets (Fig. 5). For highlighting the effect of the competitor on the binding fingerprints, KD ratios and the LSM replacement percentages were calculated and are represented as heat maps (see ESI, Fig. S7 ^†). […] This could be explained by the glycan selective native recognition domain of the protein. We note that the replacement pattern for a single probe can, in theory, be complex. […] Moreover, a single probe can bind to both orthosteric and non-orthosteric spots, which limits overall displacement levels. To avoid overlooking interesting orthosteric weak binders, direct replacement levels were assessed (see ESI, Fig. S7 ^†).
# Pull-down assay and data analysis
# Pull-down assay. LSM sublibraries were screened separately as previously described.(2) Experiments were performed in the following buffers: (i) 20 mM pH 7.4 HEPES, 150 mM NaCl, 5 mM CaCl2 for CaM; (ii) 50 mM pH 7.4 HEPES, 150 mM NaCl, 1 mM TCEP, 1 mM CaCl2 for S100 proteins; (iii) 20 mM pH 7.4 HEPES, 150 mM NaCl, 1 mM TCEP for Gal-1 and (iv) 20 mM pH 7.4 HEPES, 150 mM NaCl for RecQ-WH. Assays were performed in paper filter spin cups (Thermo Scientific) with sample volumes of 100 µl. Hexahistidine-tagged proteins were immobilized on previously washed Co-NTA resin (TALON, Takara Bio USA, Inc., Mountain View, CA) in 64 µM final concentration. LSM sublibrary was added, in which each of the 64 library members were used at a concentration of 1 µM. Samples were incubated at room temperature for 30 min with shaking at 100 rpm. Then, samples were centrifuged at 1000 rpm for 2 min and washed with 100 µl pull-down buffer to remove unbound compounds.
# The control experiments were performed using the same compounds and the resin but without the immobilized protein. In case of competitive assays, competitor peptides were added to LSM sublibrary samples in 200 µM final concentration. In the case of Gal-1, lactose (competitor) was used in a concentration of 10 mM. Experiments were performed at least twice. Mean […]
# LC-MS methods and parameters. HPLC/ESI-MS analysis was used to characterize the samples from the pull-down assay. LC-MS analysis was performed with a Thermo Scientific Dionex UltiMate 3000 HPLC system interfaced to an LTQ ion trap mass spectrometer (Thermo Electron Corp., San Jose, CA, USA). Samples were injected onto an Aeris Widepore XB-C18 (250 x 4.6 mm) analytical HPLC column using gradient elution 5-80 % solution B during 25 minutes. For pull-down samples, eluent composition was 0.1% acetic acid in distilled water (Solution A) and 0.1% acetic acid in acetonitrile (solution B). Mass spectra were acquired in full scan mode from 200 to 2000 m/z range. For overlapping peaks, selective reaction monitoring (SRM) was […]
# MS data analysis. Thermo Xcalibur 2.2 software was used for peak identification and integration. The majority of the foldameric fragments could be resolved independently via HPLC-MS/MS measurements based on molecular weight, MS fragmentation pattern and retention time. Peaks of some foldamers with β3-hIle or β3-hLeu in position R2 could not be resolved, these were integrated and averaged. In the processing method, each sample component was associated to a chromatographic peak based on previously identified mass (m/z) and retention time (ref (2) and Table S7-10). Using ICIS peak detection algorithm, the general detection and integration criteria were: smoothing points: 5, baseline window: 80, area noise factor: 5, peak noise factor: 10. Using these processing setups, all raw data files were reprocessed together and analyzed. Errors in peak identification during the automatic processing were corrected manually.
# Calculation of the discussed parameters […]
# S100B = biological target: T2, S100B (Homo sapiens, UniProt P04271); test: Pull-down assay with immobilized protein and LSM libraries; format: binding; details: H14 library; 1:1 binding assumed; read-out: Surface mapping KD (apparent)
# T2 construct: made in house; host or cells: Escherichia coli BL21(DE3)
# T2 sequence (P04271 1-92): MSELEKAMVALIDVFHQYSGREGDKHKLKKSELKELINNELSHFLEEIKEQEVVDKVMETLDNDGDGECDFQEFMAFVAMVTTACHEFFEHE
# Procedure, shortened: (§1)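 Buffers were HEPES pH 7.4 with 150 mM NaCl, plus 1 mM TCEP and 1 mM CaCl2 (50 mM HEPES) for S100A4 and S100B, 1 mM TCEP for Gal-1, and no additive for RecQ-WH. Immobilized protein at 64 µM was equilibrated 30 min with the LSM sublibrary, and unbound probes were measured by LC-MS.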
# Gal-1 [2] = biological target: T1, Gal-1; test: as above; format: binding; details: H14 library; 1:1 binding assumed; read-out: Surface mapping KD (apparent)
# Procedure, shortened: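 His-tagged protein immobilized on Co-NTA resin (64 µM) in 20 mM HEPES pH 7.4, 150 mM NaCl, equilibrated 30 min at room temperature with foldamer LSM sublibraries at equimolar total concentration. Unbound fractions quantified by HPLC-MS versus protein-free resin control; apparent KD assumes 1:1 binding.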
# CaM [3] = biological target: T3, CaM (Bos taurus, UniProt P62157); test: as above; format: binding, bovine; details: H14 library; 1:2 stoichiometry assumed; read-out: Surface mapping KD (apparent)
# T3 construct: made in house; host or cells: E. coli BL21 (DE3)
# Procedure, shortened: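 His-tagged protein immobilized on Co-NTA resin, equilibrated 30 min at room temperature with LSM sublibraries (64 members, […]), equimolar protein to total probe. CaM buffer: 20 mM HEPES pH 7.4, 150 mM NaCl, 5 mM CaCl2. Bound fractions from HPLC-MS loss of unbound probe versus protein-free resin control; Kd derived.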
# CaM [4] = biological target: T3, CaM; test: Competition pull-down with native ligand TRPV1-Ct15; format: binding, bovine; details: H14 library; competitor peptide 200 µM; read-out: Surface mapping KD (apparent), competition
# S100A4 = biological target: T4, S100A4 (Homo sapiens, UniProt P26447); test: Pull-down assay with immobilized protein and LSM libraries; format: binding; details: H14 library; 1:1 binding assumed; read-out: Surface mapping KD (apparent)
# T4 construct: made in house; host or cells: Escherichia coli BL21(DE3)
# Procedure, shortened: as §1
# T4 sequence (P26447 whole entry): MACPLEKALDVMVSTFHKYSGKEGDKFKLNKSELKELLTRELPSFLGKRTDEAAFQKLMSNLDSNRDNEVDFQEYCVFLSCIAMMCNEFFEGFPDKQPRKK
# T1 sequence (P09382 whole entry): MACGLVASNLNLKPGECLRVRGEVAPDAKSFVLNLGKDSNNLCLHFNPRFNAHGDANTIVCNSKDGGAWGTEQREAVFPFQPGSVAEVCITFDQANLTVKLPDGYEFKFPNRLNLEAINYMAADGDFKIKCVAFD
Structure (SMILES),Kd (Gal-1 [1]),Kd (S100B),Kd (Gal-1 [2]),Kd (CaM [3]),Kd (CaM [4]),Kd (S100A4)
NC(=O)C[C@@H](CC(=O)N[C@H]1CCCC[C@@H]1C(=O)N[C@H]1CCCC[C@@H]1C(=O)N[C@H](CC(=O)N[C@H]1CCCC[C@@H]1C(N)=O)Cc1ccccc1)NC(=O)[C@H]1CCCC[C@@H]1N [H14 NF],250 µM,123 µM,264 µM,45 µM,339 µM,–
CC[C@H](C)[C@@H](CC(=O)N[C@H]1CCCC[C@@H]1C(N)=O)NC(=O)[C@H]1CCCC[C@@H]1NC(=O)[C@H]1CCCC[C@@H]1NC(=O)C[C@H](CC(N)=O)NC(=O)[C@H]1CCCC[C@@H]1N [H14 NI],323 µM,–,258 µM,80 µM,283 µM,472 µM
NCCCC[C@@H](CC(=O)N[C@H]1CCCC[C@@H]1C(N)=O)NC(=O)[C@H]1CCCC[C@@H]1NC(=O)[C@H]1CCCC[C@@H]1NC(=O)C[C@H](CC(N)=O)NC(=O)[C@H]1CCCC[C@@H]1N [H14 NK],342 µM,270 µM,–,82 µM,254 µM,–
CC(C)C[C@@H](CC(=O)N[C@H]1CCCC[C@@H]1C(N)=O)NC(=O)[C@H]1CCCC[C@@H]1NC(=O)[C@H]1CCCC[C@@H]1NC(=O)C[C@H](CC(N)=O)NC(=O)[C@H]1CCCC[C@@H]1N [H14 NL],338 µM,–,259 µM,76 µM,345 µM,472 µM
N=C(N)NCCC[C@@H](CC(=O)N[C@H]1CCCC[C@@H]1C(N)=O)NC(=O)[C@H]1CCCC[C@@H]1NC(=O)[C@H]1CCCC[C@@H]1NC(=O)C[C@H](CC(N)=O)NC(=O)[C@H]1CCCC[C@@H]1N [H14 NR],247 µM,128 µM,114 µM,58 µM,434 µM,–
NC(=O)C[C@@H](CC(=O)N[C@H]1CCCC[C@@H]1C(=O)N[C@H]1CCCC[C@@H]1C(=O)N[C@H](CC(=O)N[C@H]1CCCC[C@@H]1C(N)=O)Cc1c[nH]c2ccccc12)NC(=O)[C@H]1CCCC[C@@H]1N [H14 NW],185 µM,98 µM,169 µM,38 µM,269 µM,–
NC(=O)CC[C@@H](CC(=O)N[C@H]1CCCC[C@@H]1C(=O)N[C@H]1CCCC[C@@H]1C(=O)N[C@@H](CO)CC(=O)N[C@H]1CCCC[C@@H]1C(N)=O)NC(=O)[C@H]1CCCC[C@@H]1N [H14 QS],500 µM,–,350 µM,187 µM,336 µM,–
CC(C)[C@@H](CC(=O)N[C@H]1CCCC[C@@H]1C(N)=O)NC(=O)[C@H]1CCCC[C@@H]1NC(=O)[C@H]1CCCC[C@@H]1NC(=O)C[C@H](CCC(N)=O)NC(=O)[C@H]1CCCC[C@@H]1N [H14 QV],372 µM,–,349 µM,94 µM,229 µM,–
C[C@@H](CC(=O)N[C@H]1CCCC[C@@H]1C(N)=O)NC(=O)[C@H]1CCCC[C@@H]1NC(=O)[C@H]1CCCC[C@@H]1NC(=O)C[C@H](CO)NC(=O)[C@H]1CCCC[C@@H]1N [H14 SA],432 µM,–,389 µM,384 µM,362 µM,–
NC(=O)[C@H]1CCCC[C@@H]1NC(=O)C[C@H](CCC(=O)O)NC(=O)[C@H]1CCCC[C@@H]1NC(=O)[C@H]1CCCC[C@@H]1NC(=O)C[C@H](CO)NC(=O)[C@H]1CCCC[C@@H]1N [H14 SE],415 µM,–,326 µM,236 µM,232 µM,–
NC(=O)C[C@@H](CC(=O)N[C@H]1CCCC[C@@H]1C(N)=O)NC(=O)[C@H]1CCCC[C@@H]1NC(=O)[C@H]1CCCC[C@@H]1NC(=O)C[C@H](CO)NC(=O)[C@H]1CCCC[C@@H]1N [H14 SN],427 µM,–,310 µM,184 µM,279 µM,–
C[C@@H](O)[C@@H](CC(=O)N[C@H]1CCCC[C@@H]1C(N)=O)NC(=O)[C@H]1CCCC[C@@H]1NC(=O)[C@H]1CCCC[C@@H]1NC(=O)C[C@H](CO)NC(=O)[C@H]1CCCC[C@@H]1N [H14 ST],413 µM,–,–,215 µM,307 µM,323 µM
C[C@@H](O)[C@@H](CC(=O)N[C@H]1CCCC[C@@H]1C(=O)N[C@H]1CCCC[C@@H]1C(=O)N[C@@H](CC(=O)O)CC(=O)N[C@H]1CCCC[C@@H]1C(N)=O)NC(=O)[C@H]1CCCC[C@@H]1N [H14 TD],415 µM,–,326 µM,314 µM,232 µM,–
C[C@@H](O)[C@@H](CC(=O)N[C@H]1CCCC[C@@H]1C(=O)N[C@H]1CCCC[C@@H]1C(=O)N[C@@H](CCC(=O)O)CC(=O)N[C@H]1CCCC[C@@H]1C(N)=O)NC(=O)[C@H]1CCCC[C@@H]1N [H14 TE],366 µM,–,244 µM,285 µM,281 µM,–
C[C@@H](O)[C@@H](CC(=O)N[C@H]1CCCC[C@@H]1C(=O)N[C@H]1CCCC[C@@H]1C(=O)N[C@@H](CO)CC(=O)N[C@H]1CCCC[C@@H]1C(N)=O)NC(=O)[C@H]1CCCC[C@@H]1N [H14 TS],390 µM,–,408 µM,71 µM,487 µM,–
C[C@@H](O)[C@@H](CC(=O)N[C@H]1CCCC[C@@H]1C(N)=O)NC(=O)[C@H]1CCCC[C@@H]1NC(=O)[C@H]1CCCC[C@@H]1NC(=O)C[C@@H](NC(=O)[C@H]1CCCC[C@@H]1N)[C@@H](C)O [H14 TT],431 µM,–,366 µM,253 µM,416 µM,–
CC(C)[C@@H](CC(=O)N[C@H]1CCCC[C@@H]1C(N)=O)NC(=O)[C@H]1CCCC[C@@H]1NC(=O)[C@H]1CCCC[C@@H]1NC(=O)C[C@@H](NC(=O)[C@H]1CCCC[C@@H]1N)[C@@H](C)O [H14 TV],424 µM,–,399 µM,113 µM,376 µM,–
C[C@@H](O)[C@@H](CC(=O)N[C@H]1CCCC[C@@H]1C(=O)N[C@H]1CCCC[C@@H]1C(=O)N[C@H](CC(=O)N[C@H]1CCCC[C@@H]1C(N)=O)Cc1ccc(O)cc1)NC(=O)[C@H]1CCCC[C@@H]1N [H14 TY],338 µM,180 µM,297 µM,84 µM,226 µM,–
